Assay results taken from patent publication US9173898B2, “Methods of treating giardiasis” (THE UNITED STATES OF AMERICA, as represented by the …, priority 2010, dated 2015).
Values after ≈ are worked out from the molar mass of the structure shown. Counter-ions that a name gives are not always drawn.

Key:
[1] = test system: CHO cells; assay: CHO cell cytotoxicity assay in 1536-well format (ATP content counter-screen); type: cell-based, Chinese hamster; details: for Emax: Cricetulus griseus, CHO, 48 h, percent reduction in ATP levels compared with 38.3 µM camptothecin at maximal compound concentration, read-out: CHO Efficacy
[2] = test system: Giardia WB; assay: Giardia viability (ATP content) assay in 1536-well format; type: cell-based, Giardia lamblia; details: for Emax: 48 h, read-out: Giardia WB Efficacy; for IC50: concentration at which 50% of DMSO control ATP levels are detected, 48 hours, 1536-well
Procedure: (§1) For the viability assay in 1536-well format, 2 μL media was dispensed per well into 1536-well white solid-bottom plates using a Multidrop Combi dispenser (Thermo Scientific). Subsequently, 23 nL/well compound solutions or DMSO controls were dispensed to the assay plates containing media via a pintool workstation (Kalypsys, San Diego). Trophozoites were chilled on ice to detach from glass tubes, and unless otherwise noted, were diluted to 250,000 trophozoites/mL with ice cold media. The trophozoite suspension was kept on ice and dispensed as 4 μL/well with the Multidrop Combi dispenser. Attachment of trophozoites to dispensing apparatus was avoided with continuous dispensing and icing of the trophozoite suspension. The plates were covered with plastic low-evaporation lids, individually sealed in Type A Bio-Bags and incubated at 37° C. for 48 hours. Following incubation, 4 μL/well of ATPLite reagent was dispensed with the Multidrop Combi dispenser. The assay plates were briefly centrifuged at 1000 RPM and luminescence signal was detected on a ViewLux plate reader (PerkinElmer) after 20 min incubation at room temperature. Signal-to-basal (S/B) ratio, Z′ factor and coefficient of variation (CV) were calculated from 32 wells with 0.38% DMSO (total signal) and 32 well with 38.3 μM Mnz (basal signal).
Assay miniaturization in 1,536-well plate format was undertaken to increase throughput and facilitate screening of large compound libraries. The volume of trophozoites suspension was reduced to 6 μL/well and the ATP detection reagent was reduced to 4 μL/well in the 1536-well assay plates. […] The 100 trophozoites/well density was selected for further experiments to reduce the preparation work of Giardia cultures. Following these conditions, a DMSO test plate was used to assess the statistical parameters of the assay in the 1,536-well plate format.
Using the above established conditions in 1536-well format, each compound of the invention was tested at 5 concentration points, ranging from 61 nM-38.3 μM in a 1:5 dilution ratio (Inglese, J., D. S. Auld, A. Jadhav, R. L. Johnson, A. Simeonov, A. Yasgar, W. Zheng, and C. P. Austin. 2006. Quantitative high-throughput screening: a titration-based approach that efficiently identifies biological activities in large chemical libraries. Proc Natl Acad Sci USA 103:11473-8).

[3] = test system: CHO cells; assay: CHO cell cytotoxicity assay in 1536-well format (ATP content counter-screen); type: cell-based, Chinese hamster; details: concentration at which 50% of DMSO control ATP levels are detected, 48 hours
Procedure: For the viability assay in 1536-well format, 2 μL media was dispensed per well into 1536-well white solid-bottom plates using Multidrop Combi dispenser. Subsequently, 23 nL/well compound solutions or DMSO controls were dispensed to the assay plates via a pintool workstation. The Chinese hamster ovary (CHO) cells were grown in T225 flasks to 70% confluence under a standard cell culture condition (ATCC), detached with 0.25% Trypsin/EDTA, and seeded at 250 cells/well in 4 μL media (Dulbecco's Modified Eagle Medium, 10% fetal bovine serum, 1× penicillin/streptomycin). The plates were incubated at 37° C. with 5% CO2 and 95% humidity for 48 hours. Subsequently, ATP content was measured following the addition of 4 μL/well of ATPLite reagent and a 20 min incubation on a ViewLux plate reader.
Data from the CHO cell counter-screen underwent the same initial analysis, with the exception that raw luminescence counts were normalized relative to DMSO only wells (0% activity) and 38.3 μM camptothecin treated wells (100% activity).
CHO cells, commonly used in high throughput compound screening, were selected to determine the cytotoxicity of the compounds towards a mammalian cell line.

[4] = test system: Giardia lamblia GS isolate; assay: Minimum Lethal Concentration (MLC) determination; type: cell-based; details: Giardia duodenalis, 72 h; 3 days with compound, then 3 days regrowth without compound; tube without any live organisms
Procedure: Giardia lamblia GS isolate was used throughout the Minimal Lethal Concentration (MLC) experiments. Organisms were grown and maintained in TYI-S-33 medium supplemented with bile and antibiotics (Keister, 1983). Cidal activity was determined in 96-well culture plates (Corning Incorporated) followed by Giardia trophozoites regrowth in 8 ml tubes (Fisher Scientific). Dry compounds were dissolved in DMSO (Sigma) at stock concentration of 10 mM and then added to the growth media to ensure final DMSO concentration of no more than 0.5%. 100 μl of the compound solutions were placed in the wells by serial dilutions. 10 μl of Giardia trophozoites containing 10000 organisms were then added. Serial dilutions of metronidazole served as the positive control and the DMSO-containing medium served as the negative control. Plates were incubated under anaerobic conditions in sealed bags (Becton Dickinson and Company) at 37° C. for 3 days and surveyed visually under microscope to check survival, mobility and attachment of trophozoites. The plate was chilled on ice for 30 min and the entire contents of 4 wells in the growth/death transition were transferred into the 8 ml tubes containing growth media only (without the compound). After 3 days of incubation at 37° C., tubes were checked under microscope for any surviving trophozoites. MLC was attributed to the tube without any live organisms. See, e.g., Keister, D. B. 1983. Axenic culture of Giardia lamblia in TYI-S-33 medium supplemented with bile. Trans. Soc. Trop. Med. Hyg. 77:487-488.

[5] = test system: G. lamblia GS isolate; assay: ATP content assay against G. lamblia GS isolate; type: cell-based, Giardia lamblia; details: Giardia duodenalis; Table 2, screen; read-out: Giardia GS IC50
Procedure: as §1
As a further confirmatory step, some compounds that were commercially available were purchased as powder samples and tested against the G. lamblia GS isolate using both the ATP content and enumeration assays (Table 3).

[6] = Giardia, percent reduction in ATP levels compared with 38.3 mM Mnz at maximal compound concentration

Work on `C=CCNC1=C2C[C@@H](C)C[C@H](OC)[C@H](O)[C@@H](C)/C=C(\C)[C@H](OC(N)=O)[C@@H](OC)/C=C\C=C(/C)C(=O)NC(=CC1=O)C2=O` [17-Allylamino geldanamycin] yielded an Emax [1] of 86.9%, an Emax [2, 6] of 95.6% and an IC50 ([2]; Giardia) of 81.9 nM. The IC50 ([3]; Cricetulus griseus, CHO) was 520 nM and the MBC [4] was 13.9 µM (≈ 8.14 µg/mL).

For `N[C@H](C(=O)O)[C@@H]1CC(Cl)=NO1` [Acivicin], the Emax [1] was 52.5%, the Emax [2, 6] was 85.9% and the IC50 ([2]; Giardia) was 170 nM. The IC50 ([3]; Cricetulus griseus, CHO) was 27400 nM.

`CC(C)C[C@H](NC(=O)[C@H](Cc1ccccc1)NC(=O)c1cnccn1)B(O)O` [Bortezomib (S,S), Bortezomib] showed an Emax [1] of 48.2%, an Emax [2, 6] of 94.4% and an IC50 ([2]; Giardia) of 110 nM. For the same molecule, the IC50 ([3]; Cricetulus griseus, CHO) was 20 nM.

With `NC(=O)c1cc(N2CC2)c([N+](=O)[O-])cc1[N+](=O)[O-]` [CB 1954] the “CHO Efficacy” value ([1]; percent reduction in ATP levels compared with 38.3 mM camptothecin at maximal compound concentration) was −16.9%, the IC50 [2] was 120 nM and the “Giardia WB Efficacy” value ([2]; percent reduction in ATP levels compared with 38.3 mM Mnz at maximal compound concentration) was 96.4%. It also gave an IC50 [3] of over 100000 nM.

Work on `COC(COC(N)=O)C1=C(N2CC2)C(=O)C(C)=C(N2CC2)C1=O` (stereo not drawn) [Carboquone] yielded an Emax [1] of 98.4%, an Emax [2, 6] of 97.4% and an IC50 ([2]; Giardia) of 183 nM. It also gave an IC50 ([3]; Cricetulus griseus, CHO) of 580 nM and an MBC [4] of 1.54 µM (≈ 0.495 µg/mL).

Work on `COC(=O)[C@H]1[C@H]2C[C@@H]3c4[nH]c5ccccc5c4CCN3C[C@H]2C[C@@H](OC(=O)c2cc(OC)c(OC)c(OC)c2)[C@@H]1OC` [Deserpidine] yielded an IC50 [5] of 283 nM, an Emax [1] of 13% and an Emax [2, 6] of 94.5%. The IC50 ([2]; Giardia) was 1630 nM, the IC50 ([3]; Cricetulus griseus, CHO) was 280 nM and the MBC [4] was 1.54 µM (≈ 0.891 µg/mL).

With `O=[N+]([O-])c1ccc(OC2OC(CO)C(O)C(O)C2F)c([N+](=O)[O-])c1` (stereo not drawn) [Dinitroph-dfgp] the Emax [1] was -8%, the Emax [2, 6] was 44.2% and the IC50 ([2]; Giardia) was 43400 nM. The IC50 ([3]; Cricetulus griseus, CHO) was over 100000 nM.

With `c1ccc2c(c1)[I+]c1ccccc1-2` [Diphenylene- iodonium chloride, diphenyleneiodonium chloride] the Emax [1] was 95.9%, the Emax [2, 6] was 96% and the IC50 ([2]; Giardia) was 259 nM. The IC50 ([3]; Cricetulus griseus, CHO) was 2060 nM.

`CCN(CC)C(=S)SSC(=S)N(CC)CC` [Disulfiram] was tested, and the Emax [1] was 53.6%, the Emax [2, 6] was 95% and the IC50 ([2]; Giardia) was 6500 nM. For the same molecule, the IC50 ([3]; Cricetulus griseus, CHO) was 200 nM.

Molecule `COc1cc2c(cc1O)CCN[C@]21CS[C@H]2c3c(OC(C)=O)c(C)c4c(c3[C@H](COC1=O)N1C2[C@H]2c3c(cc(C)c(OC)c3O)C[C@@H]([C@@H]1O)N2C)OCO4` (stereo partly drawn) [Ecteinascidin 743] has an Emax [1] of 97.6%, an Emax [2, 6] of 95.9% and an IC50 ([2]; Giardia) of 6.51 nM. For the same molecule, the IC50 ([3]; Cricetulus griseus, CHO) was 50 nM.

Molecule `CC(=O)[C@]1(O)Cc2c(O)c3c(c(O)c2[C@@H](O[C@H]2C[C@H](N)[C@H](O)[C@H](C)O2)C1)C(=O)c1ccccc1C3=O` [Idarubicin HCl] has an Emax [1] of 88.7%, an Emax [2, 6] of 94.1% and an IC50 ([2]; Giardia) of 3260 nM. For the same molecule, the IC50 ([3]; Cricetulus griseus, CHO) was 200 nM and the MBC [4] was over 41.7 µM.

With `O=C1c2c(O)ccc(O)c2C(=O)c2c(NCCNCCO)ccc(NCCNCCO)c21` [Mitoxantrone] the Emax [1] was 95.8%, the Emax [2, 6] was 87.5% and the IC50 ([2]; Giardia) was 8190 nM. For the same molecule, the IC50 ([3]; Cricetulus griseus, CHO) was 5800 nM and the MBC [4] was over 41.7 µM.
